Test results as given in patent US20260199204A1, “ANTIMICROBIAL COMBINATIONS” (Clariant International Ltd, priority 2022, published 2026).
≈ marks a conversion by molar mass, not a printed value. Where two headings read alike, the source gives them in different places. Values belong to the compound of their own block, whether it stands above or below them.

Tests used:
Format in all cases: cell-based
[1] = system: all test organisms (P.a., S.a., E.c., C.a., A.b.); test: Challenge test in O/W-cream gel, overall result; parameters: key to Challenge test criteria for all test organisms: An A-criteria is related to an excellent protection of a formulation; B-criteria is needed to show sufficient protection but additional risk eliminating measures related to packaging and raw material quality need to be applied; With an F-criteria for any of the organism tested the whole challenge test is failed and the preservation/protection of the formulation is not sufficient; details: pH 7
Excerpt: (§1) Following examples show challenge test results that were done according to EUROPEAN PHARMACOPOEIA 10TH EDITION. Chapter 5.1.3. As representative microorganisms the following test germs were used: Pseudomonas aeruginosa (gram-negative organism, short “P.a.”), Staphylococcus aureus (gram-positive organism, short “S.a.”), Escherichia coli (gram negative organism, short “E.c.”), Candida albicans (yeast, short “C.a.”) and Aspergillus brasiliensis (mold, short “A.b.”). The A criteria express the recommended efficacy to be achieved. In justified cases where the A criteria cannot be attained, for example for reasons of an increased risk of adverse reactions, the B criteria must be satisfied. An A-criteria is related to an excellent protection of a formulation, B-criteria is needed to show sufficient protection but additional risk eliminating measures related to packaging and raw material quality need to be applied. With an F-criteria for any of the organism tested the whole challenge test is failed and the preservation/protection of the formulation is not sufficient. As a reference an unpreserved sample of the respective formulation was tested as well. As a test system a difficult to preserve formulation was used: Leave-on: O/W-Cream Gel [table]

[2] = system: Pseudomonas aeruginosa (P.a.); test: Challenge test (European Pharmacopoeia 10th Edition, 5.1.3) in O/W-cream gel; parameters: key: An A-criteria is related to an excellent protection of a formulation; B-criteria is needed to show sufficient protection but additional risk eliminating measures related to packaging and raw material quality need to be applied; With an F-criteria for any of the organism tested the whole challenge test is failed and the preservation/protection of the formulation is not sufficient; details: pH 7
Excerpt: as §1

Candida albicans (C.a.) = test: as above; parameters: key: An A-criteria is related to an excellent protection of a formulation; B-criteria is needed to show sufficient protection but additional risk eliminating measures related to packaging and raw material quality need to be applied; With an F-criteria for any of the organism tested the whole challenge test is failed and the preservation/protection of the formulation is not sufficient; details: pH 7
Excerpt: as §1

[3] = system: Staphylococcus aureus (S.a.); test: as above; parameters: key: An A-criteria is related to an excellent protection of a formulation; B-criteria is needed to show sufficient protection but additional risk eliminating measures related to packaging and raw material quality need to be applied; With an F-criteria for any of the organism tested the whole challenge test is failed and the preservation/protection of the formulation is not sufficient; details: pH 7
Excerpt: as §1

[4] = system: Aspergillus brasiliensis (A.b.); test: as above; parameters: key: An A-criteria is related to an excellent protection of a formulation; B-criteria is needed to show sufficient protection but additional risk eliminating measures related to packaging and raw material quality need to be applied; With an F-criteria for any of the organism tested the whole challenge test is failed and the preservation/protection of the formulation is not sufficient; details: pH 7
Excerpt: as §1

Escherichia coli (E.c.) = test: as above; parameters: key: An A-criteria is related to an excellent protection of a formulation; B-criteria is needed to show sufficient protection but additional risk eliminating measures related to packaging and raw material quality need to be applied; With an F-criteria for any of the organism tested the whole challenge test is failed and the preservation/protection of the formulation is not sufficient
Excerpt: as §1

[5] = system: Candida parapsilosis DSM 5784; test: MIC agar dilution test, yeast; details: Lodderomyces parapsilosis, DSM5784; Candida parapsilosis (Y) DSM 5784; Sabouraud-4% Dextrose-Agar, pH 5.6
Experimental: (§2) The antimicrobial properties of Velsan Flex, 4-Hydroxyacetophenone and a combination of both against bacteria, yeast and mold were investigated: For testing the inhibition of bacteria, Velsan Flex, 4-Hydroxyacetophenone or a combination of both was diluted in butylpolyglycol and added in different concentrations to liquid Caso-Agar at 50° C. and was buffered to pH 7 (+/−0.2). For testing the inhibition of yeast and mold, Velsan Flex, 4-Hydroxyacetophenone or a combination of both was diluted in butylpolyglycol and added in different concentrations to liquid Sabouraud-4% Dextrose-Agar at 50° C. and was buffered to pH 5.6 (+/−0.2). Each of the solutions was poured into a petri-dish and inoculated with the same amount of bacteria, yeast or mold respectively. The minimum inhibitory concentration (MIC) is the lowest concentration of the respective composition that inhibits the growth of the respective microorganism where the next lowest dilution fails to inhibit the growth of said microorganism. The experiments were carried out in scientifically fair conditions so that a proper comparison could be made and conclusions drawn.

[6] = system: Candida albicans DSM 1386; test: MIC agar dilution test, yeast; details: Candida albicans (Y) DSM 1386, Sabouraud-4% Dextrose-Agar, pH 5.6
Experimental: as §2, with “microorganism.” for “microorganism. The experiments were carried out in scientifically fair conditions so that a proper comparison could be made and conclusions drawn.”
(§3) In a similar experiment as described above the antimicrobial properties of Velsan SC, 4-Hydroxyacetophenone and a combination of both against bacteria, yeast and mold were investigated.

[7] = system: Saccharomyces cerevisiae DSM 70449; test: MIC agar dilution test, yeast; details: Saccharomyces cerevisiae (Y) DSM 70449, Sabouraud-4% Dextrose-Agar, pH 5.6
Experimental: as §2, with “microorganism.” for “microorganism. The experiments were carried out in scientifically fair conditions so that a proper comparison could be made and conclusions drawn.”
as §3

[8] = system: Klebsiella pneumoniae DSM 786; test: MIC agar dilution test, bacteria; details: Klebsiella pneumoniae (B) DSM 786, Caso-Agar, pH 7
Experimental: as §2, with “microorganism.” for “microorganism. The experiments were carried out in scientifically fair conditions so that a proper comparison could be made and conclusions drawn.”
as §3

[9] = system: Staphylococcus aureus DSM 799; test: MIC agar dilution test, bacteria; details: Staphylococcus aureus (B) DSM 799, Caso-Agar, pH 7
Experimental: as §2, with “microorganism.” for “microorganism. The experiments were carried out in scientifically fair conditions so that a proper comparison could be made and conclusions drawn.”
as §3

[10] = system: Aspergillus brasiliensis DSM 1988; test: MIC agar dilution test, mold; details: Aspergillus brasiliensis (M) DSM 1988, Sabouraud-4% Dextrose-Agar, pH 5.6
Experimental: as §2, with “microorganism.” for “microorganism. The experiments were carried out in scientifically fair conditions so that a proper comparison could be made and conclusions drawn.”
as §3

[11] = system: Penicillium minioluteum/Penicillium purpurogenum ATCC 52427; test: MIC agar dilution test, mold; details: Penicillium minioluteum/Penicillium purpurogenum (M) ATCC 52427, Sabouraud-4% Dextrose-Agar, pH 5.6
Experimental: as §2, with “microorganism.” for “microorganism. The experiments were carried out in scientifically fair conditions so that a proper comparison could be made and conclusions drawn.”
as §3

[12] = system: Aspergillus terreus IMI 45543; test: MIC agar dilution test, mold; details: Aspergillus terreus (M) IMI 45543, Sabouraud-4% Dextrose-Agar, pH 5.6
Experimental: as §2, with “microorganism.” for “microorganism. The experiments were carried out in scientifically fair conditions so that a proper comparison could be made and conclusions drawn.”
as §3

[13] = system: Fusarium solani IMI 322444; test: MIC agar dilution test, mold; details: Fusarium solani (M) IMI 322444, Sabouraud-4% Dextrose-Agar, pH 5.6
Experimental: as §2, with “microorganism.” for “microorganism. The experiments were carried out in scientifically fair conditions so that a proper comparison could be made and conclusions drawn.”
as §3

[14] = system: Burkholderia cepacia DSM 7288; test: MIC agar dilution test, bacteria; details: Burkholderia cepacia (B) DSM 7288, Caso-Agar, pH 7

Compound: CC(=O)c1ccc(O)cc1 [4-Hydroxyacetophenone]
- Challenge test criteria for all test organisms ([1]; 0.25% as single preservative (entry 5)): F
- Ability to preserve the formulation ([1]; use level 0.5%, alone (entry 6)): not sufficient to preserve the formulation
- Challenge test result P.a. ([2]; concentration 0.25%): F
- Challenge test result P.a. ([2]; concentration 0.5%): A
- Challenge test result C.a. (Candida albicans (C.a.); concentration 0.25%): F
- Challenge test result C.a. (Candida albicans (C.a.); concentration 0.5%): A
- Challenge test result S.a. ([3]; concentration 0.25%): F
- Challenge test result S.a. ([3]; concentration 0.5%): B
- Challenge test result A.b. ([4]; concentration 0.25%): F
- Challenge test result A.b. ([4]; concentration 0.5%): A
- Challenge test result E.c. (Escherichia coli (E.c.); concentration 0.25%, pH 7): F
- Challenge test result E.c. (Escherichia coli (E.c.); concentration 0.5%, pH 7): F
- Challenge test result E.c. (Escherichia coli (E.c.); concentration 0.5%, pH 7, listed as Hydroxyacetophenone): fails

Compound: Sorbitan caprylate [Velsan SC]
- Ability to preserve the formulation ([1]; alone, entries 8-11 (0.5%; Velsan CGE 0.5% and 0.25%)): not sufficient to preserve the formulation
- Challenge test result P.a. ([2]; concentration 0.5%): F
- Challenge test result C.a. (Candida albicans (C.a.); concentration 0.5%): F
- Challenge test result S.a. ([3]; concentration 0.5%): B
- Challenge test result A.b. ([4]; concentration 0.5%): B
- Challenge test result E.c. (Escherichia coli (E.c.); concentration 0.5%, pH 7): F

- MIC [5]: > 10000 µg/mL
- MIC ([6]; DSM1386, read-out: MIC): 10000 µg/mL
- MIC ([7]; DSM70449, read-out: MIC): 8000 µg/mL
- MIC ([8]; DSM786, read-out: MIC): 8000 µg/mL
- MIC ([9]; DSM799, read-out: MIC): > 10000 µg/mL
- MIC ([10]; DSM1988, read-out: MIC): 8000 µg/mL
- MIC ([11]; Talaromyces minioluteus, ATCC52427, read-out: MIC): 6000 µg/mL
- MIC ([12]; IMI45543, read-out: MIC): 6000 µg/mL
- MIC ([13]; IMI322444, read-out: MIC): 3000 µg/mL
- MIC ([14]; DSM7288, read-out: MIC): 4000 µg/mL (≈ 29.4 mM)
Compound: CC(=O)c1ccc(O)cc1 [10% Hydroxyacetophenone solution, 4-Hydroxyacetophenone]

Compound: Sorbitan caprylate [90% Velsan SC solution]
- MIC [6]: 1500 ppm
- MIC [7]: 3000 ppm
- MIC [8]: 2000 ppm
- MIC [9]: 750 ppm
- MIC [10]: 4000 ppm
- MIC [11]: 1500 ppm
- MIC [12]: 1500 ppm
- MIC [13]: 1500 ppm
- MIC [14]: 6000 ppm
